Test results: patent publication US20070032456A1, “Modulation of cell death” (priority 2003, published 2007)

Assays:
[1] = in water, alcohol, and ether; cited from earlier work
[2] = system: activated p38; assay: Level of activated p38 in cells treated with PLP; format: cell-based, rat; conditions: data not shown
[3] = system: IL-6; assay: Level of expression of IL-6 in H9C2 cells treated with PLP under H2O2 oxidative stress; format: cell-based, rat
Procedure: Subcultured H9C2 cells (rat myocardium) (ATCC No. CRL-1446, from the American Type Culture Collection in Manassas, Va.) were plated into six well plates at a concentration of about 10^6 cells per well and allowed to grow overnight. The wells were then treated with concentrations of pyridoxal-5′-phosphate at concentrations of about 0, 50, 100, 250, 500, and 1000 nM in the medium. The cells were incubated for about 40 minutes.
An oxidative stressor, 1 mM H2O2 (Sigma, St. Louis, Mo.), was then added to each well. Supernantant samples were collected from the wells before addition of the 1 mM H2O2, and after 2, 4, 6, and 12 hours of exposure. The supernatant samples were stored at −20° C. until analyzed. The levels of IL-6 were then analyzed in each of the samples using test kits from Biosource Intl. (Camarillo, Calif.).

For `Cc1ncc(COP(=O)(O)O)c(C=O)c1O` [pyridoxal-5′-phosphate, 3-hydroxy-2-methyl-5-[(phosphonooxy)methyl]-4-pyridinecarboxaldehyde], the solubility [1] is given as “essentially insoluble”, the “level of activated p38” value [2] is given as “did not effect the level of activated p38” and the “levels of IL-6 expression” value ([3]; H9C2 cells (rat myocardium) pretreated about 40 minutes with 100 nM or more, then 1 mM H2O2, FIG. 1) is given as “decreased levels of IL-6 expression”. For the same compound, the “duration of the decrease of IL-6 levels” value ([3]; H9C2 cells, 100 nM, after application of oxidative stress (1 mM H2O2), FIG. 2) was “at least 12 hours”.
